The text below walks through data of patent US20140128352A1, “COMPOUNDS AND METHODS FOR MODULATING MITOCHONDRIAL METABOLISM AND REACTIVE OXYGEN SPECIES PRODUCTION” (Buck Institute for Research on Aging, priority 2012, published 2014).

Entries after “also recorded” stand apart in the source; their conditions may differ. Like-named read-outs stand apart in the source and are kept apart here.

The target of test [1] is T1, succinate dehydrogenase/complex II (SDH) (Rattus norvegicus, UniProt P21913+Q641Z9+Q6PCT8+Q920L2).
T1 construct: freshly isolated muscle mitochondria were assayed; from tissue; host or cells: rat skeletal muscle mitochondria (Wistar, Harlan Laboratories)
Description: High-throughput screen: ROS production from succinate dehydrogenase/complex II (SDH). It is filed as biochemical. Conditions: percent change in ROS from DMSO controls.
Description: Skeletal muscle mitochondria were isolated from 5-8 week old female Wistar rats (Harlan Laboratories). Minced muscle was homogenized in buffer containing bacterial protease Type VIII prior to differential centrifugation to separate mitochondria from other tissue components. Unless otherwise stated, freshly isolated muscle mitochondria were assayed in buffer containing 120 mM KCl, 5 mM HEPES, 1 mM EGTA, 0.3% (w/v) bovine serum albumin. Where indicated, CaCl2 was added to yield a final free concentration of 250 nM calcium at pH 7.0 at 37° C.
Just prior to use, plates were brought to room temperature and diluted 300-fold with standard buffer (13.3X=33.3 μM). To monitor the performance of each assay throughout screening and to provide intra-plate normalization reference points, DMSO negative controls and known mitochondrial inhibitor positive controls were included on each Master compound plate.
Total amounts of superoxide and H2O2 production were determined fluorometrically as H2O2, without distinguishing between them, in the presence of exogenous superoxide dismutase (25 units/mL final), horseradish peroxidase (1 unit/mL final), and Amplex UltraRed (25 μM final) as described (Affourtit, C. et al. (2012) Measurement of proton leak and electron leak in isolated mitochondria. Methods Mol. Biol. 810: 165-82). Just prior to use, a bulk 3.3X solution was made in standard buffer and distributed into a 2 mL deep well 96-well transfer plate.
To assess the effects of a compound on ROS production from succinate dehydrogenase/complex II (SDH), Start Solution containing 15 μM palmitoyl carnitine, 2.5 μM antimycin A and 2 μM myxothiazol was distributed into standard 96-well transfer plates. A Biomek FX workstation was programmed to dispense solutions into black 96-well assay plates. Solutions were dispensed to all assay plates in the following order: ROS Detection solution described in Example 3, Mitochondria solution described in Example 1 to a final concentration of 0.3 mg/ml, and Compound dilutions described in Example 2. Duplicate assay plates were made and each was initiated by the addition of 3.3X Start solution containing 15 μM palmitoyl carnitine, 2.5 μM antimycin A and 2 μM myxothiazol. Plates were incubated in the dark at room temperature for 30-40 minutes before acquiring endpoint fluorescence using a Victor 3V plate reader (Perkin Elmer) equipped with 550/590 nm excitation/emission filters.
The fluorescence values in each well were scaled as the percent change from the intra-plate DMSO controls with the appropriate inhibitor positive controls defined as −100%. Following initial scaling, intra-plate normalized values were subjected to Tukey's two-way median polish to remove row and column dependent positional effects (Malo et al., 2006).

The target of test [2] is T2, outer ubiquinone binding site of complex III (IIIQO) (Rattus norvegicus, UniProt P00159+P20788).
T2 construct: freshly isolated muscle mitochondria were assayed; from tissue; host or cells: rat skeletal muscle mitochondria (Wistar, Harlan Laboratories)
Description: High-throughput screen: ROS production from outer ubiquinone binding site of complex III (IIIQO). Conditions: percent change in ROS from DMSO controls. It is filed as biochemical.

The subject of test [3] is mitochondrial membrane potential (ΔΨm). Description: Membrane potential (ΔΨm) counterscreen with TMRM. Conditions: malate, nigericin. For orientation: The purpose of a counterscreen is to sort out artefacts and off-target activity.
Description: Skeletal muscle mitochondria were isolated from 5-8 week old female Wistar rats (Harlan Laboratories). Minced muscle was homogenized in buffer containing bacterial protease Type VIII prior to differential centrifugation to separate mitochondria from other tissue components. Unless otherwise stated, freshly isolated muscle mitochondria were assayed in buffer containing 120 mM KCl, 5 mM HEPES, 1 mM EGTA, 0.3% (w/v) bovine serum albumin. Where indicated, CaCl2 was added to yield a final free concentration of 250 nM calcium at pH 7.0 at 37° C. Total and free calcium concentrations were calculated using the Extended MaxChelator program at http://maxchelator.stanford.edu.
Compounds were manually transferred from the Master Compound Plate to two black 96-well assay plates. A bulk solution was prepared containing the following components (final concentrations) and manually dispensed into the two ΔΨm assay plates: the potentiometric dye TMRM (5 μM), mitochondria (0.2 mg/mL), glutamate (5 mM), malate (5 mM), and nigericin (80 ng/mL).
The target of test [4] is T3, flavin binding site of complex I (IF) (Rattus norvegicus, UniProt Q5XIH3).
T3 construct: freshly isolated muscle mitochondria were assayed; from tissue; host or cells: rat skeletal muscle mitochondria (Wistar, Harlan Laboratories)
Description: High-throughput screen: ROS production from flavin binding site of complex I (IF). It counts as biochemical.

For another test, the system named is site IQ. Nature of the test: Retest of IQ ROS production (expanded microplate panel / cuvette). It counts as biochemical, rat. Conditions: retest; subsaturating (0.5 mM) succinate. The procedure: Compounds identified as site-selective hits as well as structural analogs were re-sourced from ChemBridge and dissolved in DMSO as 80 mM stocks. Master Titration Plates were prepared manually by serially diluting 80 mM compound stocks between 0.08 and 80 mM on 96-well microplates. Four compounds were titrated in duplicate on each plate. Additional DMSO controls were interspersed across these plates to serve as local normalization controls during analysis since two-way median polishing was not appropriate. Just prior to use, compounds were diluted 100-fold with standard buffer (10X). The same known inhibitor positive controls were included on each plate as during high-throughput screening.
The five core ROS assays and single ΔΨm assay were carried out as in the initial high-throughput screen. In addition, several assays were included to help validate the specificity of the compounds for a given site of production. All compounds were titrated against separate assays targeting IQ ROS and IIIQo ROS using subsaturating (0.5 mM final) succinate. […] Specifically, ΔΨm was monitored separately with 5 mM succinate (in the presence of 4 μM rotenone) in addition to glutamate and malate as before. The use of different substrates was designed to reveal compounds that disrupt mitochondrial function in a substrate specific manner.
Most frequently, these changes involved the use of different substrates to supply electrons from an alternative entry point in the chain. If a site of ROS production is being targeted selectively by a compound, then in many cases the supply of electrons should not influence the effectiveness of this compound at suppressing ROS production. […] Alternative conditions are listed below: • 1) IQ ROS: 5 mM succinate with 1 mM glutamate • 2) IF ROS: 5 mM malate only as substrate (in the presence of 4 μM rotenone) • 3) IIIQo ROS: 5 mM succinate (in the presence of 3 mM malonate, 4 uM rotenone, and 2.5 μM antimycin A) • 4) IIIQo ROS: 25 mM glycerol phosphate (in the presence of 1 mM malonate, 4 μM rotenone, and 2.5 μM antimycin A) • 5) SDH: 0.5 mM succinate (in the presence of 4 uM rotenone, 2.5 uM antimycin A, and 2 μM myxothiazol) • 6) GPDH: Vary the concentration of glycerol phosphate in the presence or absence of 250 nM free calcium to allosterically activate GPDH (all in the presence of 4 μM rotenone, 2.5 uM antimycin A, 1 mM malonate, and 2 μM myxothiazol) • 7) ΔΨm: Vary the concentration of glycerol phosphate in the presence or absence of 250 nM free calcium to allosterically activate GPDH and in the presence or absence of 80 ng/mL nigericin (all in the presence of 4 μM rotenone)
The fluorescence values in each well were scaled in relation to the intra-plate DMSO and known inhibitor controls as in the high-throughput screen except that median values for local interspersed DMSO wells (3-6 wells) were used rather than just the 8 DMSO wells in columns 1 and 12. This normalization was applied in place of the two-way median polish used during high-throughput screening to minimize row and column effects. […] At this stage, strong candidates were not necessarily excluded from further testing if subtle off-target effects were observed (e.g. loss of specificity or signs of general inhibition at the highest concentrations). Rather, these candidates were often pursued for more detailed mechanistic studies with the expectation that subsequent structure activity analysis would provide insight into which structurally related compounds would provide the optimal specificity for a given site of production.
Candidate compounds that remained site-selective following robotics assisted retesting were subsequently tested for effects on ROS production and ΔΨm with a Varian Cary Eclipse fluorimeter (excitation 550 nm, emission at 590 nm). This experimental format allows kinetic measurements of ROS production and ΔΨm with more accurate temperature control, sample stirring, and background correction. […]

For test [5], the target named is T4, glycerol-3-phosphate dehydrogenase (GPDH) (Rattus norvegicus, UniProt P35571).
T4 construct: The activity of GPDH in intact mitochondria (0.3 mg/mL) was measured; from tissue; host or cells: rat skeletal muscle mitochondria (Wistar, Harlan Laboratories)
T4 sequence (P35571 43-727): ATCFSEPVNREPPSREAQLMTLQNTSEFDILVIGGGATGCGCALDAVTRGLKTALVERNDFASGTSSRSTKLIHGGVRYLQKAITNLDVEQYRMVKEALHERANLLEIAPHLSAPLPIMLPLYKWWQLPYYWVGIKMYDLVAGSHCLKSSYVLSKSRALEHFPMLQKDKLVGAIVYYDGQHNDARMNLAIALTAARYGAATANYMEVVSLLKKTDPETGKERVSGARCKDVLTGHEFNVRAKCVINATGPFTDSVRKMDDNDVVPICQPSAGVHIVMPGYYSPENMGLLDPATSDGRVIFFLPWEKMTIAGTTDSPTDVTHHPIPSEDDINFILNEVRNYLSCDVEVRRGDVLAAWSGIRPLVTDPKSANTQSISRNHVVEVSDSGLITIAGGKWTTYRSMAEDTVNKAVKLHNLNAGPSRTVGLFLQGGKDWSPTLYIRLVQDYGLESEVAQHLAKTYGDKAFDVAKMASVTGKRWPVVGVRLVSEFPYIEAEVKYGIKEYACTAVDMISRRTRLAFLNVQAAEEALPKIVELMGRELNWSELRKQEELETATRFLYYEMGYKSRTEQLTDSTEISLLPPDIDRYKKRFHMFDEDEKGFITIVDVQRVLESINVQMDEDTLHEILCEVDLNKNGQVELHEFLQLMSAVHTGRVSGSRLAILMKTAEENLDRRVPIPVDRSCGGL
Description: High-throughput screen: ROS production from glycerol-3-phosphate dehydrogenase (GPDH). The arrangement: inhibition: dose or concentration left out as unconfirmed. It is filed as biochemical. Conditions: percent change in ROS from DMSO controls.

The subject of test [6] is ubiquinone binding site of complex I (IQ). Nature of the test: High-throughput screen: ROS production from ubiquinone binding site of complex I (IQ), isolated skeletal muscle mitochondria. It counts as biochemical, rat. Conditions: for IQ: percent change in ROS from DMSO controls; for % Reduction in ROS production (IQ): Table 2, 5 mM succinate, compounds 2.5 μM, percent change from DMSO, positive control −100%.

The next test has as its target T5, site IF (Rattus norvegicus, UniProt Q5XIH3).
T5 construct: freshly isolated muscle mitochondria were assayed; from tissue; host or cells: rat skeletal muscle mitochondria (Wistar, Harlan Laboratories)
Nature of the test: Retest of IF ROS production (expanded microplate panel). It is filed as biochemical. The procedure: Compounds identified as site-selective hits as well as structural analogs were re-sourced from ChemBridge and dissolved in DMSO as 80 mM stocks. Master Titration Plates were prepared manually by serially diluting 80 mM compound stocks between 0.08 and 80 mM on 96-well microplates. Four compounds were titrated in duplicate on each plate. Additional DMSO controls were interspersed across these plates to serve as local normalization controls during analysis since two-way median polishing was not appropriate. Just prior to use, compounds were diluted 100-fold with standard buffer (10X). The same known inhibitor positive controls were included on each plate as during high-throughput screening. The five core ROS assays and single ΔΨm assay were carried out as in the initial high-throughput screen. In addition, several assays were included to help validate the specificity of the compounds for a given site of production. […] The use of different substrates was designed to reveal compounds that disrupt mitochondrial function in a substrate specific manner. […] Most frequently, these changes involved the use of different substrates to supply electrons from an alternative entry point in the chain. If a site of ROS production is being targeted selectively by a compound, then in many cases the supply of electrons should not influence the effectiveness of this compound at suppressing ROS production. […] The fluorescence values in each well were scaled in relation to the intra-plate DMSO and known inhibitor controls as in the high-throughput screen except that median values for local interspersed DMSO wells (3-6 wells) were used rather than just the 8 DMSO wells in columns 1 and 12. This normalization was applied in place of the two-way median polish used during high-throughput screening to minimize row and column effects. […] At this stage, strong candidates were not necessarily excluded from further testing if subtle off-target effects were observed (e.g. loss of specificity or signs of general inhibition at the highest concentrations). Rather, these candidates were often pursued for more detailed mechanistic studies with the expectation that subsequent structure activity analysis would provide insight into which structurally related compounds would provide the optimal specificity for a given site of production.

The mark [7] stands for this setting: Table 3, 5 mM glutamate, 5 mM malate, 4 μM rotenone, compounds 2.5 μM, percent change from DMSO, positive control −100%, read-out: % Reduction in ROS production (IF).
[8] abbreviates: Table 7, percent change in ROS from DMSO controls, read-out: IF.
Where [9] appears, read: Table 8, percent change in ROS from DMSO controls.
[10] abbreviates: Table 9, percent change in ROS from DMSO controls.
The mark [11] stands for this setting: Table 7, percent change in ROS from DMSO controls.

T3 sequence (Q5XIH3 21-464 limits assumed, one chain of several): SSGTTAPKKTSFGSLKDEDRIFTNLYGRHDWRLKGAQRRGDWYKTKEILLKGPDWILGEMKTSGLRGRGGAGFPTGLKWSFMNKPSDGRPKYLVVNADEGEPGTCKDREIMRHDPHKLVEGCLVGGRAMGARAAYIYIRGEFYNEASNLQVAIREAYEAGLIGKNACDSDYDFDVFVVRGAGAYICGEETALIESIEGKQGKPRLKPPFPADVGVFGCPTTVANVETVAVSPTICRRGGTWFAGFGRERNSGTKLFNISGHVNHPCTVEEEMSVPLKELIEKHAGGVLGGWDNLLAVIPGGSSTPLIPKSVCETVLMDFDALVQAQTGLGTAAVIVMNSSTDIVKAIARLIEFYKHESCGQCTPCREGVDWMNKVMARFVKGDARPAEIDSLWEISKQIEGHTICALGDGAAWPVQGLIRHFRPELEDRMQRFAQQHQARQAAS
T1 sequence (Q920L2 35-656): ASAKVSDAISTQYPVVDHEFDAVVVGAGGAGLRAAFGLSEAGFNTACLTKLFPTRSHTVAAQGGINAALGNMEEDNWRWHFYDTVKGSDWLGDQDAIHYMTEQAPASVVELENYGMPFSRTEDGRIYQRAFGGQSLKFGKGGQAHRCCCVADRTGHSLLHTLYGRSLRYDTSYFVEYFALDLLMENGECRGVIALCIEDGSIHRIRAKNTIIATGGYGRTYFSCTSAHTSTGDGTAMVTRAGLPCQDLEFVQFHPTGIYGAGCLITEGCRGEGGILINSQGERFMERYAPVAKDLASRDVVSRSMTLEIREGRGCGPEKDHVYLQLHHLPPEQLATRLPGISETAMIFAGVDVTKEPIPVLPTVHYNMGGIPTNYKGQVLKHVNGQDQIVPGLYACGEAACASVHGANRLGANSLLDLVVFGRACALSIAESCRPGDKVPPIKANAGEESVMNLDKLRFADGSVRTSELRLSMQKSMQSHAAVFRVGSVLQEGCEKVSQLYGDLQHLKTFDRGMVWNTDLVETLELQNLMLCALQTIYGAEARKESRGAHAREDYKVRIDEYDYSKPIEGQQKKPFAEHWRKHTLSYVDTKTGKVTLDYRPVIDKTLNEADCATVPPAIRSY
T1 sequence (P21913 31-282): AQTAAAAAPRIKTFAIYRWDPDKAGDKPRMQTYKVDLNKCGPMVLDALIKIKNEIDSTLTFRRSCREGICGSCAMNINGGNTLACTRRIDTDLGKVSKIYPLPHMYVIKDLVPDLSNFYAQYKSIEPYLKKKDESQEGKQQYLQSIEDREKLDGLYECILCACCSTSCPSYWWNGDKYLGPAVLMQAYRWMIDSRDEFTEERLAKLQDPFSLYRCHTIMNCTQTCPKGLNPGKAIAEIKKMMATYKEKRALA
T1 sequence (Q641Z9 30-169 limits assumed): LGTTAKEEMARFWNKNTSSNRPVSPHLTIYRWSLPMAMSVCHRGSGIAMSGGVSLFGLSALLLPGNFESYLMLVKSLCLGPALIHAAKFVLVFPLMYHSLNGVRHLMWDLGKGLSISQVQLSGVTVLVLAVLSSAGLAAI
T1 sequence (Q6PCT8 57-159): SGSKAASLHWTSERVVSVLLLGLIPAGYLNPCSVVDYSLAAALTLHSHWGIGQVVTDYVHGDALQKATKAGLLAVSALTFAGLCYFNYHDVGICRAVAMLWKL
T5 sequence (Q5XIH3 21-464 limits assumed): as the sequence (Q5XIH3 21-464 limits assumed, one chain of several) above

Turning to `CN(C)CCN(Cc1ccccc1)Cc1ccc(C(F)(F)F)cc1` [Compound 29], the inhibition at 2.5 µM in test [1] (Table 7) worked out at 0.1%; in test [2] (Table 7, read-out: IIIQO), 3.2%; in test [2] (Table 9, read-out: IIIQo), 3.2%; in test [4] (setting [7]), 18.1%; in test [4] (setting [8]), 18.1%. In addition, the SDH in test [1] (Table 8) and in test [1] (Table 9) was −0.1 in each case. This compound also registered an IIIQO in test [2] (Table 8) of −3.2. Further, the ΔΨm was −0.6 in test [3] (Table 8, glutamate) and −0.6 in test [3] (Table 9, glutamate). Also, the IF in test [4] (setting [9]) and in test [4] (setting [10]) was −18.1 each time. Also, in the test with site IQ, the “effect on IQ ROS with subsaturating substrate” value is “strong effects on IQ ROS with subsaturating substrate; also recorded: stronger off-target effects on IQ ROS when driven by low concentration succinate”. For the same compound, in test [5] (Table 7), the inhibition came to 2.4%. In addition, the GPDH in test [5] (Table 8) and in test [5] (Table 9) was −2.4 throughout. The IQ in test [6] (Table 7), in test [6] (Table 8) and in test [6] (Table 9) was −2.1 each time.
Take `CN(C)CCCN(CCCN(C)C)Cc1cccnc1` [Compound 33]: the “effect on IF ROS and selectivity for site IF” value at site IF is “further improved selectivity for IF without compromising ΔΨm”. Further, the inhibition at 2.5 µM was -6.1% in test [2] (Table 7, read-out: IIIQO); -6.1% in test [2] (Table 9, read-out: IIIQo); 3% in test [4] (setting [7]); 3% in test [4] (setting [8]). In test [2] (Table 8), the IIIQO was found to be 6.1. The ΔΨm is given as 0.4 in test [3] (Table 8, glutamate) and 0.4 in test [3] (Table 9, glutamate). The IF in test [4] (setting [9]) and in test [4] (setting [10]) was −3.0 throughout. Besides, the inhibition in test [5] (Table 7) amounted to 12.7%. Further, the GPDH in test [5] (Table 8) and in test [5] (Table 9) was −12.7 each time. Also, the IQ in test [6] (Table 7), in test [6] (Table 8) and in test [6] (Table 9) was −0.5 each time.
Take `O=[N+]([O-])c1ccc(Oc2ccc(S(=O)(=O)Nc3ccc(F)cc3)cc2)cc1` [Compound 84]: the SDH in test [1] (Table 7), in test [1] (Table 8) and in test [1] (Table 9) was 0.7 in each case. For the same compound, the IIIQO in test [2] (Table 7), in test [2] (Table 8) and in test [2] (Table 9) was 0.8 throughout. For the same compound, the ΔΨm in test [3] (Table 8, glutamate) was −1.5; in test [3] (Table 9, glutamate) it was −1.5. The IF in test [4] (setting [11]), in test [4] (setting [9]) and in test [4] (setting [10]) was −1.4 in each case. Besides, the GPDH in test [5] (Table 7), in test [5] (Table 8) and in test [5] (Table 9) was −0.2 throughout. Further, in test [6], the “% Reduction in ROS production (IQ)” value is −47.7%. Moreover, the IQ in test [6] (Table 7), in test [6] (Table 8) and in test [6] (Table 9) was −47.7 throughout.
For the compound `O=[N+]([O-])c1ccc(Oc2ccc(S(=O)(=O)Nc3ccc4c(c3)OCCO4)cc2)cc1` [Compound 85], the SDH in test [1] (Table 7), in test [1] (Table 8) and in test [1] (Table 9) was 3.6 throughout. Further, the IIIQO in test [2] (Table 7), in test [2] (Table 8) and in test [2] (Table 9) was −0.8 each time. The ΔΨm in test [3] (Table 8, glutamate) is −0.9; in test [3] (Table 9, glutamate) it was −0.9. In addition, the IF in test [4] (setting [11]), in test [4] (setting [9]) and in test [4] (setting [10]) was 0.5 throughout. Moreover, the GPDH in test [5] (Table 7), in test [5] (Table 8) and in test [5] (Table 9) was −3.3 each time. The “% Reduction in ROS production (IQ)” value in test [6] was −50.6%. In addition, the IQ in test [6] (Table 7), in test [6] (Table 8) and in test [6] (Table 9) was −50.6 each time.
